Data reported in patent US20020150915A1, “Promoter sequences” (priority 2000, published 2002).

Target: T1, CAR (Homo sapiens, UniProt Q14994)
T1 construct: amplifying full-length CAR by RT-PCR from total RNA prepared from C3A/HepG2 cells; expressed in transfected cells; host or cells: C3A cells (HepG2 derivative), transient transfection with pcDNA3-hCAR
T1 sequence (Q14994 1-348 isoform Q14994-2): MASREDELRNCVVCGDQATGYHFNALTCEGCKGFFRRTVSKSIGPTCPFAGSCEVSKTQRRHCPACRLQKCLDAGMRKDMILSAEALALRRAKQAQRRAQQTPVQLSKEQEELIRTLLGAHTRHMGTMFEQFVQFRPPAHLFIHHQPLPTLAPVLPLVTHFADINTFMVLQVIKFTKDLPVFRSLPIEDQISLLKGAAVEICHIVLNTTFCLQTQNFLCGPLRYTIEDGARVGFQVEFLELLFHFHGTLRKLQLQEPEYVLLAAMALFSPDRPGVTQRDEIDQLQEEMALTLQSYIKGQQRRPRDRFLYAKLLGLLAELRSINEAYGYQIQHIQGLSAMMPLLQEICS
Experiment: Cell based CYP3A7 promoter-luciferase reporter assay with CAR expression vector
Conditions: C3A cells transfected with CYP3A7-9302 reporter and CAR expression vector; 10 μM compound, 48 hours; FIG. 3
Protocol: C3A cells were transfected with Cyp3A7 promoter with (Cyp3A7-9302) or without (CYP3A7-7478) the XREM and with CAR expression vector (CAR) or with empty (pcDNA3) expression vector. Cells were treated with vehicle (DMSO) or 10 μM of rifampicin or clotrimasol. Relative luciferase values represent luciferase activity compensated for the alkaline phosphatase reporter. The data are mean values +/−SD for six wells of a typical experiment
Six well plates were seeded with 0.5×10^6 C3A cells. The cells were maintained in MEM with phenol red containing L-glutamine and supplemented with nonessential amino acids. The medium also contained 10% foetal bovine serum (life Technologies). The cells were allowed to settle for 24 hours before the medium was replaced by medium containing 10% charcoal treated foetal bovine serum (Hyclone Laboratories). Each well was transfected with 0.1 μg RSV-AF, 2 μg of the indicated reporter and 0.5 μg of the expression vector for PAR-2, CAR or the empty expression vector, pcDNA3. FuGENE 6™ Transfection Reagent (Roche) was used according to recommendations from the manufacturer. After 24 hours the medium was replaced by fresh medium containing 10% charcoal treated foetal bovine serum. […] After induction for 48 hours the medium was analysed for the alkaline phosphatase activity and the luciferase activity was measured in the cell lysate as described (Bertilsson et al., 1998). […]

Clc1ccccc1C(c1ccccc1)(c1ccccc1)n1ccnc1 [clotrimazole]
CAR dependent induction of CYP3A7 reporter: reduced
